In PubChem BioAssay (NCI):
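All cell lines were grown in 96-well plates and treated with compound for 48 hours. TGI: concentration producing complete growth inhibition.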

Assays:
Experiment in all cases: growth of human tumour cells (NCI), 48 h
SF-268 CNS = system: SF-268 CNS
T-47D breast = system: T-47D breast
MALME-3M melanoma = system: MALME-3M melanoma
CCRF-CEM leukemia = system: CCRF-CEM leukemia
UACC-62 melanoma = system: UACC-62 melanoma
A549 NSCLC = system: A549 NSCLC
EKVX NSCLC = system: EKVX NSCLC
CAKI-1 renal = system: CAKI-1 renal
HCT-116 colon = system: HCT-116 colon
HOP-62 NSCLC = system: HOP-62 NSCLC
HS 578T breast = system: HS 578T breast
SK-MEL-28 melanoma = system: SK-MEL-28 melanoma
SK-MEL-2 melanoma = system: SK-MEL-2 melanoma
SF-539 CNS = system: SF-539 CNS
KM12 colon = system: KM12 colon
NCI-H460 lung = system: NCI-H460 lung
K-562 leukemia = system: K-562 leukemia
UO-31 renal = system: UO-31 renal
M14 melanoma = system: M14 melanoma
HCC-2998 colon = system: HCC-2998 colon
RPMI-8226 leukemia = system: RPMI-8226 leukemia
RXF 393 renal = system: RXF 393 renal
ACHN renal = system: ACHN renal
MCF7 breast = system: MCF7 breast
OVCAR-8 ovarian = system: OVCAR-8 ovarian
MDA-N = system: MDA-N
HOP-92 NSCLC = system: HOP-92 NSCLC
NCI/ADR-RES ovarian = system: NCI/ADR-RES ovarian
NCI-H522 lung = system: NCI-H522 lung
DU-145 prostate = system: DU-145 prostate
786-0 renal = system: 786-0 renal
NCI-H226 lung = system: NCI-H226 lung
HCT-15 colon = system: HCT-15 colon
U251 CNS = system: U251 CNS
MDA-MB-231 breast = system: MDA-MB-231 breast
HT29 colon = system: HT29 colon
SN12C renal = system: SN12C renal
SNB-75 CNS = system: SNB-75 CNS
OVCAR-4 ovarian = system: OVCAR-4 ovarian
OVCAR-5 ovarian = system: OVCAR-5 ovarian
MDA-MB-435 = system: MDA-MB-435
TK-10 renal = system: TK-10 renal
MOLT-4 leukemia = system: MOLT-4 leukemia
SF-295 CNS = system: SF-295 CNS
SNB-19 CNS = system: SNB-19 CNS
SK-MEL-5 melanoma = system: SK-MEL-5 melanoma
HL-60(TB) leukemia = system: HL-60(TB) leukemia
NCI-H23 lung = system: NCI-H23 lung
SR leukemia = system: SR leukemia
PC-3 prostate = system: PC-3 prostate
OVCAR-3 ovarian = system: OVCAR-3 ovarian
SK-OV-3 ovarian = system: SK-OV-3 ovarian
UACC-257 melanoma = system: UACC-257 melanoma
LOX IMVI melanoma = system: LOX IMVI melanoma
COLO 205 colon = system: COLO 205 colon
IGROV1 ovarian = system: IGROV1 ovarian

Measured: TGI

O=C(O)c1cc(/C=C/c2ccc(O)c(O)c2)ccc1O
51.4 µM: MCF7 breast
82.1 µM: CCRF-CEM leukemia
44.9 µM: K-562 leukemia
> 100 µM: all other assays above
